Results taken from publication PMC5029964 (Journal of the American Chemical Society, 2016).
“Also recorded” adds a separate entry of the source.

Columns and labels:
PchA, EntC, and Irp9 = assay: Dissociation constants by intrinsic fluorescence; assay type: binding; conditions: read-out: Kd of E·Mg complexes (range over all three enzymes)
PchA [1] = molecular target: T1, PchA (Pseudomonas aeruginosa, UniProt Q51508); assay type: biochemical
T1 sequence (Q51508 1-476): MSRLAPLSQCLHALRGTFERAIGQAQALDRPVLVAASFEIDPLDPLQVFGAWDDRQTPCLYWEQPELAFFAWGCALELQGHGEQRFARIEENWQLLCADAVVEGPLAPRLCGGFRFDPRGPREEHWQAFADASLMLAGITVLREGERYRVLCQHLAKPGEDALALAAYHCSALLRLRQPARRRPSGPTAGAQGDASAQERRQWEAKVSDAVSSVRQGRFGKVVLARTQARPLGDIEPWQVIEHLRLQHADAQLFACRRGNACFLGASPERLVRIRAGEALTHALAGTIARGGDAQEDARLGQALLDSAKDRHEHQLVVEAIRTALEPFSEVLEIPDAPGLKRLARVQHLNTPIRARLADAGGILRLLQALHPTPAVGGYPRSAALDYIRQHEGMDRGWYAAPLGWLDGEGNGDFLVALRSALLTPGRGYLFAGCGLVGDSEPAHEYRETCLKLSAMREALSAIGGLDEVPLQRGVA

[2] = test system: MST enzymes (PchA, EntC, Irp9); assay: Ligand binding rates by stopped-flow intrinsic fluorescence; conditions: all three enzymes
EntC = molecular target: T2, EntC (Escherichia coli, UniProt P0AEJ2); assay: Steady-state chorismate isomerase activity, PchB-coupled salicylate fluorescence; assay type: biochemical
T2 sequence (P0AEJ2 1-391): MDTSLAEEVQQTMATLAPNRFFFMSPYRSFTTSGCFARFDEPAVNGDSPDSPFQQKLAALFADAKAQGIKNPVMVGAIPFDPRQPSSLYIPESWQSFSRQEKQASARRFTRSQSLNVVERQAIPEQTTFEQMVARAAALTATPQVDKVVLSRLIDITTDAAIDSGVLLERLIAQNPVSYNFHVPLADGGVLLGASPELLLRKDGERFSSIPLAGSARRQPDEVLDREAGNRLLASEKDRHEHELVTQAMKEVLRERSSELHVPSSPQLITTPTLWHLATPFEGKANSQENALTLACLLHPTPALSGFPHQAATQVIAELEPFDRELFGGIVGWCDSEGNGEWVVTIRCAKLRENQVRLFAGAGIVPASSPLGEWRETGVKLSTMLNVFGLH

Irp9 = Irp9 (Yersinia enterocolitica, UniProt Q9X9I8); assay type: biochemical; conditions: saturating chorismate 20 μM; magnesium 0–20 mM
PchB = molecular target: T3, PchB (Pseudomonas aeruginosa, UniProt Q51507); assay: Steady-state PchB lyase activity; assay type: biochemical
T3 sequence (Q51507 1-101): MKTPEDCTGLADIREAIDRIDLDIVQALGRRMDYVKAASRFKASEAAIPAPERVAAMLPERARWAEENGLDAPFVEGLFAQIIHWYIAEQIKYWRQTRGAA

PchA [3] = molecular target: T1, PchA; conditions: cited from earlier work
Fur = conditions: read-out: Kd for Fe(II) binding; cited from earlier work

## [Cl-].[Cl-].[Mg+2] [magnesium, magnesium chloride]
PchA, EntC, and Irp9
  Kd: 130 to 190 µM
PchA [1]
  magnesium concentration at which maximal velocity was observed: approximately 0.5 mM
PchA [1]; steady state
  magnesium concentrations at which inhibition is noted: over 0.5 mM
[2]; binding complete within stopped-flow dead time, 25 °C
  observed rate constant of ligand binding (bound from ∼1.0 ms dead time): greater than 1600 s^–1
[2]; suggested from dead-time bound
  association rate constants (order of magnitude): ~10^8 M^–1 s^–1
EntC; saturating chorismate 200 μM, magnesium 0–20 mM
  magnesium concentration at which maximal velocity was observed: approximately 0.5 mM
EntC; steady state
  magnesium concentrations at which inhibition is noted: over 0.5 mM
Irp9
  magnesium inhibition in the steady state (shape of magnesium dependence): normal hyperbolic shape; also recorded: did not exhibit the same inhibition
PchB
  binding of and inhibition by magnesium: does not bind and is not inhibited

## CN1[C@@H]([C@H]2CSC(c3ccccc3O)=N2)SC[C@H]1C(=O)O [pyochelin]
PchA [3]
  feedback inhibition of PchA: no inhibition

## N[C@@H](CS)C(=O)O [cysteine]
PchA [3]
  feedback inhibition of PchA: no inhibition

## O=S(=O)([O-])[O-].O=S(=O)([O-])[O-].[Fe+2].[NH4+].[NH4+] [Fe(II), ferrous ammonium sulfate]
Fur
  Kd: 1200 nM
PchA [3]; 100 μM
  effect on PchA activity: did not alter PchA activity
